One assay concerns the target TLR2/6 (Homo sapiens, UniProt O60603+Q9Y2C9). Nature of the assay: Luciferase reporter assay in HEK-293+TLR2/6 cells. Particulars: corrected on renilla activity; ratios compared to non-stimulated cells; cells lysed 24 h after ligand. It counts as cell-based. The method, then: (§1) Stable immortalized HEK-293+TLR2/6 and HEK-293+TLR4/MD2/CD14 (Invitrogen) cells were seeded in 6-well plates in 1× DMEM supplemented with 5% FBS, 1 mM glutamine, amino acids not essential 1× and pyruvate 0.01%. At 80% confluency, pcon3A-luciferase (pcon3A motif responses to KNFB activation) and TK-renilla vectors (99:1 ratio, respectively) were transfected with metafectene. The transfection medium was changed after 24 hours, and the cells were seeded in 96-well plates. Ligands were added 24 hours later at 80% confluence and cells were lysed after 24 h. Luciferase activity was read using the TwinLite kit (Perkin Elmer) on a Fluo Star Optima (BMG) plate reader and corrected based on renilla activity (three replicates per condition). All ratios were compared to the control condition (non-stimulated cells). We used Pam3CSK4, FSL-1, and Escherichia coli LPS as control ligands with agonistic effect mediated by TLR2/1, TLR2/6, and TLR4 receptors, respectively. TNF alpha was used as a positive control in all cell lines.
In general terms: A reporter such as luciferase makes a cellular process visible.

In a further assay the target is TLR4/MD2/CD14 (Homo sapiens, UniProt O00206+Q9Y6Y9). Nature of the assay: Luciferase reporter assay in HEK-293+TLR4/MD2/CD14 cells. The settings on record: corrected on renilla activity; ratios compared to non-stimulated cells; cells lysed 24 h after ligand. It counts as cell-based. As to the method:
as §1

Sequence of TLR2/6 (O60603 21-784): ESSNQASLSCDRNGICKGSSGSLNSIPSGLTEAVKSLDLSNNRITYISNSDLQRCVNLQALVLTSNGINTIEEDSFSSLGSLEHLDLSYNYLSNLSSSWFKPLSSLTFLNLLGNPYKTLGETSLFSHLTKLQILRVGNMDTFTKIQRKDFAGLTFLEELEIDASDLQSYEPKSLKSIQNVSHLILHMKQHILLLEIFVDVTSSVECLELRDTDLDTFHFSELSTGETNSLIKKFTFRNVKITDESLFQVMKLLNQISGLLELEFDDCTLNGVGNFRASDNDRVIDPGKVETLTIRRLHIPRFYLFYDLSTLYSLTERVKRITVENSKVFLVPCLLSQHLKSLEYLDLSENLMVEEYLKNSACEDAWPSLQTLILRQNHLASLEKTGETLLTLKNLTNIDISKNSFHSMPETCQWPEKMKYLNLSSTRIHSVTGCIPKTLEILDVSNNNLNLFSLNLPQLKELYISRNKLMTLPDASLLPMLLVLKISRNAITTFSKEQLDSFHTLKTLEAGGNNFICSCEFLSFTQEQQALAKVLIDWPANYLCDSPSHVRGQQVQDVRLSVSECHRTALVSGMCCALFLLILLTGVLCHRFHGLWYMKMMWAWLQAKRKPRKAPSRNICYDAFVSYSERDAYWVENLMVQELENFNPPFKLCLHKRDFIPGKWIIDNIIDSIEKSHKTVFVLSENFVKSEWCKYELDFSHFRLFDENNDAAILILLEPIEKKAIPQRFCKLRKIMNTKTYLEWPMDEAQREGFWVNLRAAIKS
Sequence of TLR2/6 (Q9Y2C9 32-796): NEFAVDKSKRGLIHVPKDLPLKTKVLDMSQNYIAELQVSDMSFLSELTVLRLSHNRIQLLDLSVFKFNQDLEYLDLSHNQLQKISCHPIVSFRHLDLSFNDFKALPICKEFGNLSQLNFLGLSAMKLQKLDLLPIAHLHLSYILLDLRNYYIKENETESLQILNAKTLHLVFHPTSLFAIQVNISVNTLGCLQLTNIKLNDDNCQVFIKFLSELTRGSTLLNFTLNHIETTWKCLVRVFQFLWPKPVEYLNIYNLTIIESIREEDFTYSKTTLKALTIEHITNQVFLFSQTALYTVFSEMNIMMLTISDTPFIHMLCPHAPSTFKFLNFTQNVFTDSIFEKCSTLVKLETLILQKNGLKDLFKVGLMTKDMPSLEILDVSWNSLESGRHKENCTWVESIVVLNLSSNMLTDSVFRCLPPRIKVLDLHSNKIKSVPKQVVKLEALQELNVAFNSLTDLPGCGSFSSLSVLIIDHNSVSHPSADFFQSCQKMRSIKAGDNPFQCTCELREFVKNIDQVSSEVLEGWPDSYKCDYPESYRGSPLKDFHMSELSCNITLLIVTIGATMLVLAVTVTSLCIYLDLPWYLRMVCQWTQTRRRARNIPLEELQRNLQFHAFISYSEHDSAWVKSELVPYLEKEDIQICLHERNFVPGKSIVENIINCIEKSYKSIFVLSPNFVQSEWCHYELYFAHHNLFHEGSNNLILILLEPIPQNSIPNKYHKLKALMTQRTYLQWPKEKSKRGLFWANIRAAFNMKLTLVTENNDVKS
Sequence of TLR4/MD2/CD14 (Q9Y6Y9 19-160): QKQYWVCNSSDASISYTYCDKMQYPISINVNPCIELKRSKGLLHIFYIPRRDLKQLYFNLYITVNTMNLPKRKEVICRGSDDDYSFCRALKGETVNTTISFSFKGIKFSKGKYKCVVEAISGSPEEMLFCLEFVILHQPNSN
Sequence of TLR4/MD2/CD14 (O00206 24-839): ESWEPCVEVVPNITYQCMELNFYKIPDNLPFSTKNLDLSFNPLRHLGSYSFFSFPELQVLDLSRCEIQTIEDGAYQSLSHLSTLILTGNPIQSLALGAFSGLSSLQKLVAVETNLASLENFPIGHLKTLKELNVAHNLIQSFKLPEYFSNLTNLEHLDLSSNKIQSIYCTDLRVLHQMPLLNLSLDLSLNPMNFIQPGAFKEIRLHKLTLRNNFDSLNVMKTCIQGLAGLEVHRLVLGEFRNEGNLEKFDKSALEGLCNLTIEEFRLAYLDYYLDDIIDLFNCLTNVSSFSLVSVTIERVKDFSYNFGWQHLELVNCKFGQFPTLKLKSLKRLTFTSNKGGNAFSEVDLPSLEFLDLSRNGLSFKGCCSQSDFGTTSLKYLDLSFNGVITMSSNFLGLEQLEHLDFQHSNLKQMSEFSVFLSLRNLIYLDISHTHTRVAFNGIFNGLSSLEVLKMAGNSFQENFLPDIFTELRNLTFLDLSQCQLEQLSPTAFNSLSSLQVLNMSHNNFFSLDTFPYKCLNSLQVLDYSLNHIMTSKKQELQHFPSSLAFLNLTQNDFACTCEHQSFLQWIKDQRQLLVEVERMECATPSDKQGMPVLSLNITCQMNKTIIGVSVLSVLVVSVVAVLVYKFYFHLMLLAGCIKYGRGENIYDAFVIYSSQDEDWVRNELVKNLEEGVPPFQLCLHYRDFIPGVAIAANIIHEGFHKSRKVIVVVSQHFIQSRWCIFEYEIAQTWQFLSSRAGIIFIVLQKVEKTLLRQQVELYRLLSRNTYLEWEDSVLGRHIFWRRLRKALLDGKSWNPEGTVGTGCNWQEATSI

Take FSL-1: on TLR2/6, the HEK-TLR2 luciferase activity is 2.195 fold vs non-stimulated cells. Besides, the HEK-TLR4 luciferase activity on TLR4/MD2/CD14 was 1.123 fold vs non-stimulated cells.

For Pam3CSK4, at TLR2/6, the HEK-TLR2 luciferase activity is 4.079 fold vs non-stimulated cells. Besides, the HEK-TLR4 luciferase activity at TLR4/MD2/CD14 was 1.112 fold vs non-stimulated cells.
